Measurements as given in patent publication US12297188B2, “Crystalline forms of (S)-1-(1-acryloylpyrrolidin-3-yl)-3-((3,5-dimethoxyphenyl)ethynyl)-5-(methylamino)-1H-pyrazole-4-carboxamide” (Beijing InnoCare Pharma Tech Co., Ltd., priority 2019, dated 2025).
Converted amounts (≈) assume the structure as drawn. “Also recorded” adds a separate entry of the source.

Legend:
[1] = test system: fibroblast growth factor receptor (FGFR); settings: cited from earlier work
[2] = Stability assessment on storage (XRPD and HPLC purity); format: physicochemical; settings: for XRPD change after storage / purity change after storage / stability after storage: 25° C./60% RH and 40° C./75% RH (opened) one week
Experimental: About 10 mg Form A of Compound I was added to each 1.5-mL glass vial and stored at (i) 80° C. (closed) for one day, or (ii) 25° C./60% RH and 40° C./75% RH (opened) for one week, and then analyzed for XRPD and HPLC purity.
About 10 mg Form C of Compound I was added to each 1.5-mL glass vial and stored under 25° C./60% RH (FIG. 13) and 40° C./75% RH (opened, FIG. 14) for one week, and then analyzed for XRPD and HPLC purity.

[3] = Thermogravimetric analysis (thermal stability); format: physicochemical
Experimental: TGA is a method of thermal analysis in which the mass of a sample is measured over time as the temperature changes. TGA evaluates the thermal stability of a material.
(§1) X-ray powder diffraction (XRPD) studies in the present disclosure were performed using a Bruker D8 ADVANCE X-ray powder diffractometer. The parameters of the XRPD method of Compound I were as follows: • X-ray reflection: Cu, Kα • Kα1 (Å): 1.540598; Kα2 (Å): 1.544426 • Kα2/Kα1 intensity ratio: 0.50 • Voltage: 40 kV • Current: 40 mA • Scanning range: from 3.0 to 40.0 degree • Differential scanning calorimetry (DSC) data in the present disclosure were acquired by a TA DSC250. The parameters of the DSC method of Compound I were as follows: • Heating rate: 10° C./min • Purging gas: nitrogen • Thermogravimetric analysis (TGA) data in the present disclosure were acquired by a TA TGA550. The parameters of the TGA method of Compound I were as follows: • Heating rate: 10° C./min • Purging gas: nitrogen • Dynamic vapor sorption (DVS) data in the present disclosure were acquired by a SMS Intrinsic DVS. The parameters of the DVS method of Compound I were as follows: • Temperature: 25° C. • Gas and flow rate: nitrogen, 200 mL/min • dm/dt: 0.002%/min • Relative humidity (RH) range: 0% RH-95% RH

[4] = Equilibrium solubility in water; format: physicochemical; settings: for solubility classification: water, room temperature, 24 hours
[5] = Interconversion of Forms A-C (heating and slurry competition); format: physicochemical; settings: for form obtained from slurry competition: equal amounts of Form A and B, isopropyl alcohol/water, aw=0~1, room temperature
Source text: The relationships among Forms A-C were investigated via heating and slurry competition experiments.

[6] = Hygroscopicity assessment by DVS; format: physicochemical; settings: for hygroscopicity / water uptake: DVS; for XRPD before and after DVS testing: DVS 0% RH-95% RH; for water uptake: 80% RH, 25° C.
Experimental: as §1
About 30 mg Form A of Compound I was assessed for hygroscopicity using a DVS analyzer, and tested by XRPD before and after DVS analysis. DVS is a gravimetric technique that measures how quickly and how much of a solvent is absorbed by a sample.
About 30 mg Form C of Compound I was assessed for hygroscopicity using a DVS analyzer, and tested by XRPD before and after DVS analysis.

[7] = 25° C./60% RH for 1 week (opened)
[8] = 40° C./75% RH for 1 week (opened)

| Purity (%) [2, 7] | Purity (%) [2, 8] | Purity (%) ([2]; Day 0) | weight loss (TGA) ([3]; heated to 180° C.) | solubility classification [4] | form obtained from slurry competition [5] | XRPD before and after DVS testing [6] | water uptake [6] | Compound | hygroscopicity [6] | further results |
| --- | --- | --- | --- | --- | --- | --- | --- | --- | --- | --- |
|  |  |  |  |  |  |  |  | C=CC(=O)N1CC[C@H](n2nc(C#Cc3cc(OC)cc(OC)c3)c(C(N)=O)c2NC)C1 [Compound I, (S)-1-(1-acryloylpyrrolidin-3-yl)-3-((3,5-dimethoxyphenyl)ethynyl)-5-(methylamino)-1H-pyrazole-4-carboxamide] |  | FGFR inhibition [1]: potent inhibitor |
| 99.78% | 99.76% | 99.75% | about 0.02% | almost insoluble or insoluble | gave Form A | did not change | 0.14% | C=CC(=O)N1CC[C@H](n2nc(C#Cc3cc(OC)cc(OC)c3)c(C(N)=O)c2NC)C1 [Form A, (S)-1-(1-acryloylpyrrolidin-3-yl)-3-((3,5-dimethoxyphenyl)ethynyl)-5-(methylamino)-1H-pyrazole-4-carboxamide] | not hygroscopic | XRPD change after storage ([2]; 80° C. (closed) one day): little or no change; purity change after storage ([2]; 80° C. (closed) one day): no purity change; stability after storage ([2]; 80° C. (closed) one day): stable; Purity (%) ([2]; 80° C. for 1 day (closed)): 99.77%; thermal stability ([3]; TGA, heated to 180° C.): thermally stable; thermodynamic stability ([5]; room temperature, versus Form B and C): better thermodynamic stability |
|  |  |  |  |  | gave Form A |  |  | C=CC(=O)N1CC[C@H](n2nc(C#Cc3cc(OC)cc(OC)c3)c(C(N)=O)c2NC)C1 [Form B, (S)-1-(1-acryloylpyrrolidin-3-yl)-3-((3,5-dimethoxyphenyl)ethynyl)-5-(methylamino)-1H-pyrazole-4-carboxamide] |  | chemical stability [2]: chemically stable; physical stability ([2]; can be converted to Form A or Form C): not physically stable; weight loss by TGA ([3]; temperature not stated): about 2.42%; solubility thermodynamic ([4]; thermodynamic from solid, conditions not stated): 15.1 µg/mL (≈ 35.8 µM) |
| 96.91% | 96.99% | 96.83% | about 2.40% | almost insoluble or insoluble |  | did not change | 5.44% | C=CC(=O)N1CC[C@H](n2nc(C#Cc3cc(OC)cc(OC)c3)c(C(N)=O)c2NC)C1 [Form C, (S)-1-(1-acryloylpyrrolidin-3-yl)-3-((3,5-dimethoxyphenyl)ethynyl)-5-(methylamino)-1H-pyrazole-4-carboxamide] | moderately hygroscopic; also recorded: moderately hydgroscopic | XRPD change after storage [2]: little or no change; purity change after storage [2]: no significant purity change; stability after storage [2]: stable; solubility ([4]; after equilibrium in water at room temperature for 24 hours): 15.93 µg/mL (≈ 37.6 µM); form conversion on heating ([5]; heating to 145° C. and subsequently cooling to room temperature): converted to Form A |
